Measurements reported in US20240199651A1, “ANTIBACTERIAL COMPOUNDS” (JANSSEN SCIENCES IRELAND UNLIMITED COMPANY, priority 2021, published 2024).
Read-outs that look alike come from different tables or passages of the source.

Tests used:
[1] = Chemical stability testing (LCMS); format: physicochemical; conditions: for chemical stability, purity by LCMS: 0.065 mg/mL
Description: • Add 3 μl of a 10 mM DMSO stock solution to 1 ml of the following solvents in a 1.5 ml HPLC vial. • DMSO (reference solution) • H2O/Acetonitril 1/1 (assay solution) • 0.1N HCl/Acetonitril 1/1 (assay solution) • Mix well, […] LCMS • Compare the chromatograms of the two assay solutions with the reference solution and report the additional peaks as degradation peaks

[2] = LM CLint (microsomal stability), human; format: in vitro ADME; conditions: for microsomal CLint at 1 µM: liver microsomes, read-out: CLint Microsomes, Human (h)
Excerpt: (§1) The compounds of the invention/examples may have advantages associated with in vitro potency, kill kinetics (i.e. bactericidal effect) in vitro, PK properties, food effect, safety/toxicity (including liver toxicity, coagulation, 5-LO oxygenase), metabolic stability, Ames II negativity, MNT negativity, aqueous based solubility (and ability to formulate) and/or cardiovascular effect e.g. on animals (e.g. anesthetized guinea pig). Data that is generated/calculated may be obtained using standard methods/assays, for instance that are available in the literature or which may be performed by a supplier (e.g. Microsomal Stability Assay—Cyprotex, Mitochondrial toxicity (Glu/Gal) assay—Cyprotex, as well as literature CYP cocktail inhibition assays). GSH can be measured (reactive metabolites, glucuronidation) to observe if a dihydrodiol is observed by LCMS (fragmentation ions), which would correspond to a dihydroxylation on the core heterocycle.
(§2) CLint Microsomes (μL/Min/Mg) in Dog (d), Human (h), Mouse (m) and Rat (r) (all at 1 μm)

[3] = Mitochondrial toxicity (Glu/Gal) assay; format: cell-based; parameters: Glu/Gal: Glu / Glu/Gal: Gal: unit not given here; conditions: for Glu/Gal: Glu: first value (Glu); for Glu/Gal: Gal: second value (Gal)
[4] = LM CLint (microsomal stability), mouse; format: in vitro ADME; conditions: for microsomal CLint at 1 µM: microsomes
Excerpt: as §1, §2

[5] = system: Mycobacterium tuberculosis strain EH4.0 expressing green-fluorescent protein (GFP); test: microbe, parasite or virus in culture; format: cell-based
MDCK = MDCK permeability (AB+inh, BA/AB); conditions: with inhibitor
AMES II = format: cell-based; conditions: score
Excerpt: as §1

[6] = LM CLint (microsomal stability), rat; format: in vitro ADME; conditions: for microsomal CLint at 1 µM: microsomes
Excerpt: as §1, §2

[7] = LM CLint (microsomal stability), dog; format: in vitro ADME; conditions: for microsomal CLint at 1 µM: microsomes
Excerpt: as §1, §2

[8] = 1 μm, read-out: CLint Microsomes, Mouse (m)
[9] = Mycobacterium tuberculosis, Test 1 (and/or Test 2), M. tuberculosis

| Structure (SMILES) | chemical stability, % by LCMS ([1]; 48 h, 30 µM) [%] | chemical stability, % by LCMS ([1]; 48 h, 30 µM, pH 1.6) [%] | microsomal CLint at 1 µM [2] [µL/min/mg] | IC50 ([3]; read-out: IC50, gal) [µM] | IC50 ([3]; read-out: IC50, glu) [µM] | microsomal CLint at 1 µM [4, 8] [µL/min/mg] | further results |
| --- | --- | --- | --- | --- | --- | --- | --- |
| CCc1nc2ncc(C)cn2c1C(=O)NCc1ccc(-c2cc3n(n2)CCN(S(=O)(=O)C(F)(F)F)C3)cc1 [Compound 44] | 100 | 100 | 176 | > 200 | > 200 | 20 |  |
| CCc1nc2ncc(C)cn2c1C(=O)NCCc1ccc(-c2nc3n(n2)CCN(S(=O)(=O)C(F)(F)F)C3)cc1 [Compound 66] | 98 | 98 | 39.6 | > 200 | > 200 | 92.3 | chemical stability, % by LCMS ([1]; 0 h, 30 µM): 91%; IC50 [5, 9]: 0.269 µM |
| CCc1nc2ncc(C)cn2c1C(=O)NCc1cnc(-c2cc3n(n2)CCN(S(=O)(=O)C(F)(F)F)C3)c(C)c1 [Compound 129] |  |  | 50.4 | > 200 | > 200 | 29.4 |  |
| CCc1nc2ncc(C)cn2c1C(=O)NCc1ccc(-c2cc3n(n2)CCN(S(=O)(=O)C(F)(F)F)C3)c(F)c1 [Compound 82] | 100 | 100 |  | > 25 | > 25 |  | MDCK AB+inh (MDCK): 16.2; Glu/Gal: Glu [3]: > 25; Glu/Gal: Gal [3]: > 25; AMES II (AMES II): 1 |
| Cc1cnc2nc(C3CC3)c(C(=O)NCc3ccc(-c4cn5c(n4)CN(S(=O)(=O)C(F)(F)F)CC5)cc3)n2c1 [Compound 94] |  |  | 98.1 | > 200 | > 200 | 18.1 | AC50 [5, 9]: 0.063 µM |
| Cc1cnc2nc(C3CC3)c(C(=O)NCc3ccc(-c4cc5n(n4)CCN(S(=O)(=O)C(C)C)C5)cc3)n2c1 [Compound 106] |  |  | 111 | > 100 | > 100 | 83.4 |  |
| CCc1nc2ncc(C)cn2c1C(=O)NCc1ccc(-c2cc3n(n2)CCN(S(=O)(=O)C(F)(F)F)C3)nc1 [Compound 127] |  |  | 31.5 | > 200 | > 200 | 9.29 | AC50 [5, 9]: 0.049 µM |
| CCc1nc2ccc(C)cn2c1C(=O)NCc1ccc(-c2cc3n(n2)CCN(S(=O)(=O)C(F)(F)F)C3)cc1 [Compound 81] | 100 | 100 | > 347 | > 200 | > 200 | 74.8 | chemical stability, % by LCMS ([1]; 0 h, 30 µM): 95%; microsomal CLint at 1 µM ([6]; 1 μm, read-out: CLint Microsomes, Rat (r)): 80.7 µL/min/mg; microsomal CLint at 1 µM ([7]; 1 μm, read-out: CLint Microsomes, Dog (d)): 189 µL/min/mg |
| CCc1nc2ncc(Cl)cn2c1C(=O)NCc1ccc(-c2nc3n(n2)CCN(S(=O)(=O)C(F)(F)F)C3)cc1 [Compound 2] |  |  |  | > 100 | > 100 |  | chemical stability, purity by LCMS ([1]; 0 h): 99.56%; chemical stability, purity by LCMS ([1]; 0.25 h): 99.38%; chemical stability, purity by LCMS ([1]; 0.5 h): 99.21%; chemical stability, purity by LCMS ([1]; 1 h): 98.89%; chemical stability, purity by LCMS ([1]; 2 h): 98.28%; chemical stability, purity by LCMS ([1]; 4 h): 97.1%; chemical stability, % by LCMS ([1]; 72 h, 30 µM): 100%; chemical stability, % by LCMS ([1]; 72 h, 30 µM, pH 1.6): 90.52%; MDCK AB+inh (MDCK): 32.5; Glu/Gal: Glu [3]: > 100; Glu/Gal: Gal [3]: > 100; AMES II (AMES II): 1; microsomal CLint at 1 µM [4]: < 7.7 µL/min/mg; CLint Microsomes, Rat (r) ([6]; 1 μm): < 7.7 μL/Min/Mg; microsomal CLint at 1 µM [6]: < 7.7 µL/min/mg; CLint Microsomes, Dog (d) ([7]; 1 μm): < 7.7 μL/Min/Mg; microsomal CLint at 1 µM [7]: < 7.7 µL/min/mg |
| CCc1nc2ncc(C)cn2c1C(=O)NCc1ccc(-c2cn3c(n2)CN(S(=O)(=O)C(F)(F)F)CC3)c(F)c1 [Compound 80] |  |  |  |  |  |  | chemical stability, % by LCMS ([1]; ACN/0.1N HCl (pH 1.6; 0 hr, rt)): 100%; chemical stability, % by LCMS ([1]; ACN/0.1N HCl (pH 1.6; 48 hr, rt)): 100%; chemical stability, % by LCMS ([1]; ACN/0.1N NaOH (pH 9-10; 0 hr, rt)): 76.8%; chemical stability, % by LCMS ([1]; ACN/0.1N NaOH (pH 9-10; 48 hr, rt)): 16.8%; chemical stability, % by LCMS ([1]; DMSO (0 hr, rt)): 100%; chemical stability, % by LCMS ([1]; DMSO (48 hr, rt)): 100%; CLint Microsomes, Human (h) ([2]; 1 μm): 39.8 μL/Min/Mg; IC50 ([3]; galactose medium (Glu/Gal mitotoxicity assay), read-out: IC50, gal): > 200 µM; IC50 ([3]; glucose medium (Glu/Gal mitotoxicity assay), read-out: IC50, glu): > 200 µM; CLint Microsomes, Mouse (m) ([4]; 1 μm): 13.2 μL/Min/Mg; pIC50 [5]: 8.06 |
| CCc1nc2ccc(C)cn2c1C(=O)NCc1ccc(-c2nc3n(n2)CCN(S(=O)(=O)C(F)(F)F)C3)cc1 [Compound 24] | 100 | 100 | 169 | > 200 | > 200 | 76.3 | chemical stability, % by LCMS ([1]; 0 h, 30 µM): 100%; chemical stability, % by LCMS ([1]; 0 h, 30 µM, pH 1.6): 100%; chemical stability, % by LCMS ([1]; 0 h, 30 µM, pH 9): 89.46%; chemical stability, % by LCMS ([1]; 48 h, 30 µM, pH 9): 43.8% |
